In US10392391B2 (Vertex Pharmaceuticals Incorporated, priority 2012, dated 2019):

These compounds were tested against ATR kinase (full-length ATR) (Homo sapiens (Human), UniProt Q13535) (assay: ATR inhibition assay (radioactive-phosphate incorporation)). Details: Ki(app), 5 nM full-length ATR, 10 μM ATP, 25° C.
Assay type: biochemical
Procedure, shortened: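 Ki(app) was fitted by non-linear regression to background-corrected initial rates. Full-length ATR (5 nM) phosphorylated 800 μM peptide using 10 μM [γ-33P]ATP at 25° C in Tris/HCl pH 7.5 buffer with MgCl2, DTT and 7% DMSO. After 10-minute compound pre-incubation and 24-hour reaction, phosphocellulose filters were scintillation counted.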

ATR kinase (full-length ATR), sequence (Q13535 whole entry): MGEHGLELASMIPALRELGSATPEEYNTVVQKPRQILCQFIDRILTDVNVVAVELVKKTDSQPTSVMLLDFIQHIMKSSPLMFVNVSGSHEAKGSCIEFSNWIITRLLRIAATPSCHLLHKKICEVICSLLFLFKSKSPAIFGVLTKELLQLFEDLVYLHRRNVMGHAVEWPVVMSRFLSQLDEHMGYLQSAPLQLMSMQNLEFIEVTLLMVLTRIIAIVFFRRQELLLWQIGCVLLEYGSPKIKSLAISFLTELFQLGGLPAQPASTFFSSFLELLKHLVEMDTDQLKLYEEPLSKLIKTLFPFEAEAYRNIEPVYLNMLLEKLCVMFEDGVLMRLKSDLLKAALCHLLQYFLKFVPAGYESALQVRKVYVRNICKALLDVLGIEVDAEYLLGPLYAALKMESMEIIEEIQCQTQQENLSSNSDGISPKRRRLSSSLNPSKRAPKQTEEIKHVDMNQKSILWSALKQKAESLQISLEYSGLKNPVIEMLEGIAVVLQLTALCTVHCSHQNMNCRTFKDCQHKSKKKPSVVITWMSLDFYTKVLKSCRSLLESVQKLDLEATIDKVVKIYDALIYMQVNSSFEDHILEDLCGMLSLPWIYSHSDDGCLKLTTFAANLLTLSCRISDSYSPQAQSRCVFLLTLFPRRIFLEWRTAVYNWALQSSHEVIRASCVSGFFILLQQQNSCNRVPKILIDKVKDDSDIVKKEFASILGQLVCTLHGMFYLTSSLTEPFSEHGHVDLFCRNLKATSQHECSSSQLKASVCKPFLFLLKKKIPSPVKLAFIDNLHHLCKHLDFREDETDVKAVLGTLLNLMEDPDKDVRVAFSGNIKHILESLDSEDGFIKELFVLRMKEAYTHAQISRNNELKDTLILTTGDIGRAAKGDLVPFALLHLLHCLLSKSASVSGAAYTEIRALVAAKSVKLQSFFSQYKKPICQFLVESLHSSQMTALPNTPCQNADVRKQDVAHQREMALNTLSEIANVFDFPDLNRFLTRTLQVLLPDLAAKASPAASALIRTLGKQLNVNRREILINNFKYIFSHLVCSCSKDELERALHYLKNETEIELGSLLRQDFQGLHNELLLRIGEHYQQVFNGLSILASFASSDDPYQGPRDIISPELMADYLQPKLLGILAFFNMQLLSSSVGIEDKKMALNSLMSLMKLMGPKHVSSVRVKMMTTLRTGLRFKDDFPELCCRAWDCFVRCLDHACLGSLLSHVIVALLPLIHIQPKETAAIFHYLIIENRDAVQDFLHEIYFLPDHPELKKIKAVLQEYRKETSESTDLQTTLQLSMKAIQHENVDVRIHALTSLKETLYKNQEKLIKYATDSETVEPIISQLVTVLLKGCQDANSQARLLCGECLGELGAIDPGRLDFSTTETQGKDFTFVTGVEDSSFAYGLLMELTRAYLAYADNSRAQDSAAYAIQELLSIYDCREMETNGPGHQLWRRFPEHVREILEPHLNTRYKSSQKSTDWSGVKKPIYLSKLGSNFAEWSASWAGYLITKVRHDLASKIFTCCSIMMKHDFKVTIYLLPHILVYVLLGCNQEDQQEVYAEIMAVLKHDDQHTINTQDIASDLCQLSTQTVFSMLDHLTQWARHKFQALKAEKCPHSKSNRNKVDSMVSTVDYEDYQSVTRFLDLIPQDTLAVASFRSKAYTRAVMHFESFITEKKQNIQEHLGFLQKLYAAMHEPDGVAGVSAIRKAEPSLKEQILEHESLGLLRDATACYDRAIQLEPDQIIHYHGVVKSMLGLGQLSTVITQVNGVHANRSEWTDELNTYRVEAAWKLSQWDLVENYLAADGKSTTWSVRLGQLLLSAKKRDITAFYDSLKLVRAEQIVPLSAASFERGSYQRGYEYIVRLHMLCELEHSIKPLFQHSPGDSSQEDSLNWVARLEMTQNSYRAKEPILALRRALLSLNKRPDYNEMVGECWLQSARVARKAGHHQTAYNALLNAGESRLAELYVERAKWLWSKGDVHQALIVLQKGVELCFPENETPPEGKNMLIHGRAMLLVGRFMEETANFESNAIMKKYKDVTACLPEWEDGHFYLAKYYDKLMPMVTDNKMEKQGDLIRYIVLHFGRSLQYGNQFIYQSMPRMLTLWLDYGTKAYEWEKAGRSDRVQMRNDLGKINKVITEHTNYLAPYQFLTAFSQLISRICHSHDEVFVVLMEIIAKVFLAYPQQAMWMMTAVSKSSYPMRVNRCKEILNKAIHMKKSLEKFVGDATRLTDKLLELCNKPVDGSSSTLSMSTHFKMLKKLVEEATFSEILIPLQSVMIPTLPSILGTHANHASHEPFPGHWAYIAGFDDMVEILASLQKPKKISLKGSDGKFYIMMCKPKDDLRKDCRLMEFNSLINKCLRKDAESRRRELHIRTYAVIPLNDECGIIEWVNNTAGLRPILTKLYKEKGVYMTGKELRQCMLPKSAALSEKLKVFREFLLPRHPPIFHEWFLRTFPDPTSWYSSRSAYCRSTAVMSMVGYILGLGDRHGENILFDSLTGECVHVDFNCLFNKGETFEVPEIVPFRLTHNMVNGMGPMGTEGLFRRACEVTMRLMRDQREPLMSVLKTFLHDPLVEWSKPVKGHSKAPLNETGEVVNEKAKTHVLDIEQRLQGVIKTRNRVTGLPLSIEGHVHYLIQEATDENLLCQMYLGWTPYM

Compound	Ki [µM]
CN1CCN(c2ccncc2NC(=O)c2c(N)nn3cc(F)cnc23)CC1=O [I-N-209, 2-amino-6-fluoro-N-(4-(4-methyl-3-oxopiperazin-1-yl)pyridin-3-yl)pyrazolo[1,5-a]pyrimidine-3-carboxamide]	0.01 to 1
Nc1nn2cc(F)cnc2c1C(=O)Nc1cnccc1N1CCS(=O)(=O)CC1 [I-N-210, 2-amino-N-(4-(1,1-dioxidothiomorpholino)pyridin-3-yl)-6-fluoropyrazolo[1,5-a]pyrimidine-3-carboxamide]	0.01 to 1
Nc1nn2cc(F)cnc2c1C(=O)Nc1cncc(F)c1N1CCN(C(=O)C2CCN(C3COC3)CC2)CC1 [I-N-211, 2-amino-6-fluoro-N-(5-fluoro-4-(4-(1-(oxetan-3-yl)piperidine-4-carbonyl)piperazin-1-yl)pyridin-3-yl)pyrazolo[1,5-a]pyrimidine-3-carboxamide]	0.01 to 1
CN1CCN(c2c(F)cncc2NC(=O)c2c(N)nn3cc(F)cnc23)CC1=O [I-N-212, 2-amino-6-fluoro-N-(5-fluoro-4-(4-methyl-3-oxopiperazin-1-yl)pyridin-3-yl)pyrazolo[1,5-a]pyrimidine-3-carboxamide]	0.01 to 1
Nc1nn2cc(F)cnc2c1C(=O)Nc1cncc(F)c1N1CCC(CN2CCCC2=O)CC1 [I-N-213, 2-amino-6-fluoro-N-(5-fluoro-4-(4-((2-oxopyrrolidin-1-yl)methyl)piperidin-1-yl)pyridin-3-yl)pyrazolo[1,5-a]pyrimidine-3-carboxamide]	0.01 to 1
CN1CCCCC1C(=O)N1CCN(c2c(F)cncc2NC(=O)c2c(N)nn3cc(F)cnc23)CC1 (stereo not shown) [I-N-214, 2-amino-6-fluoro-N-(5-fluoro-4-(4-(1-methylpiperidine-2-carbonyl)piperazin-1-yl)pyridin-3-yl)pyrazolo[1,5-a]pyrimidine-3-carboxamide]	0.01 to 1
CS(=O)(=O)CC1CCN(c2ccncc2NC(=O)c2c(N)nn3cc(F)cnc23)CC1 [I-N-215, 2-amino-6-fluoro-N-(4-(4-((methylsulfonyl)methyl)piperidin-1-yl)pyridin-3-yl)pyrazolo[1,5-a]pyrimidine-3-carboxamide]	0.01 to 1

Other lines, results leading:

Ki [µM]	Compound
0.01 to 1	CN1CC2(CCN(c3ccncc3NC(=O)c3c(N)nn4cc(F)cnc34)CC2)OC1=O [I-N-216, 2-amino-6-fluoro-N-(4-(3-methyl-2-oxo-1-oxa-3,8-diazaspiro[4.5]decan-8-yl)pyridin-3-yl)pyrazolo[1,5-a]pyrimidine-3-carboxamide]
0.01 to 1	Nc1nn2cc(F)cnc2c1C(=O)Nc1cnccc1N1CCN2C(=O)CC[C@H]2C1 [I-N-217, (S)-2-amino-6-fluoro-N-(4-(6-oxohexahydropyrrolo[1,2-a]pyrazin-2(1H)-yl)pyridin-3-yl)pyrazolo[1,5-a]pyrimidine-3-carboxamide]
0.01 to 1	Cc1nc(C)n(-c2ccncc2NC(=O)c2c(N)nn3cc(F)cnc23)n1 [I-N-218, 2-amino-N-(4-(3,5-dimethyl-1H-1,2,4-triazol-1-yl)pyridin-3-yl)-6-fluoropyrazolo[1,5-a]pyrimidine-3-carboxamide]
0.01 to 1	Nc1nn2cc(F)cnc2c1C(=O)Nc1cnccc1-n1ccnc1C(F)(F)F [I-N-219, 2-amino-6-fluoro-N-(4-(2-(trifluoromethyl)-1H-imidazol-1-yl)pyridin-3-yl)pyrazolo[1,5-a]pyrimidine-3-carboxamide]
0.01 to 1	CC1(C)CCCN1c1ccncc1NC(=O)c1c(N)nn2cc(F)cnc12 [I-N-220, 2-amino-N-(4-(2,2-dimethylpyrrolidin-1-yl)pyridin-3-yl)-6-fluoropyrazolo[1,5-a]pyrimidine-3-carboxamide]
0.01 to 1	CS(=O)(=O)C1CCCN(c2ccncc2NC(=O)c2c(N)nn3cc(F)cnc23)C1 (stereo not shown) [I-N-221, 2-amino-6-fluoro-N-(4-(3-(methylsulfonyl)piperidin-1-yl)pyridin-3-yl)pyrazolo[1,5-a]pyrimidine-3-carboxamide]
